Results from patent US7915402B2, “Antioxidant inflammation modulators: oleanolic acid derivatives with saturation in the C-ring” (Reata Pharmaceuticals, Inc., priority 2008, dated 2011).
In brackets after ≈: the same amount, converted by molar mass. Like-named read-outs stand apart in the source and are kept apart here. Marks after values point to notes of the source that are not given here.

Experiments:
[1] = Aqueous solubility determination (Multiscreen solubility filter plate, UV/vis); type: physicochemical; conditions: universal aqueous buffer, pH 7.4, aqueous buffer, kinetic from dmso stock, universal aqueous buffer pH 7.4, 90 min, room temperature
Experimental: Aqueous Solubility Determination. The following procedure was used to obtain the aqueous solubility results summarized in Example 8. Step 1. Determination of optimal UV/vis wavelengths and generation of standard curves for a compound of interest: • (1) For eight standard calibration curves (one plate), prepare 34 mL of 50:50 (v:v) universal buffer:acetonitrile in a 50 mL tube. • (2) Using a multichannel pipet, dispense (in μL) the buffer:acetonitrile in a deep well plate as follows:
• (6) Cover plate with lid and shake (200-300 rpm) at room temperature for 20 minutes. • (7) Mix all wells by pipetting up and down 10 times. • (8) Transfer 120 μL from each well to a UV transparent plate. Cover and shake for 3-5 minutes. Remove any bubbles in the wells using a pipet. • (9) Read from 220 nm to 500 nm at 10 nm increments on a spectrophotometer (e.g., SpectraMax®).
Step 2. Compound Solubility Testing Procedures Using the Millipore™ Multiscreen® Solubility Filter Plate.
Universal Aqueous Buffer: • (a) To prepare 500 mL of universal buffer, add the following: 250 mL Nanopure water; 1.36 mL (45 mM) ethanolamine; 3.08 g (45 mM) potassium dihydrogen phosphate; 2.21 g (45 mM) potassium acetate; thoroughly mix. • (b) Adjust pH to 7.4 with HCl and q.s. to 500 mL with 0.15 M KCl. • (c) Filter to remove particulates and reduce bacterial growth. • (d) Store at 4° C. in the dark.
Solubility Protocol: • (a) Add 285 μL of Universal Aqueous Buffer to desired wells of the Millipore™ Multiscreen® Solubility filter plate. • (b) Add 15 μL of 10 mM compound in DMSO to the appropriate wells. Add 15 μL of 100% DMSO only to 6 wells of the filter plate for blanks. • (c) Using a multichannel pipet, mix wells by pipetting up and down 10 times. Be careful not to touch the filters in the plate with the tips. • (d) Cover and gently shake (200-300 rpm) filter plate for 90 minutes at room temperature. • (e) Vacuum filter the aqueous solution from the Multiscreen® solubility filter plate into a polypropylene V-bottom plate. • (f) Transfer 60 μL of filtrate to a UV transparent plate (Greiner® UV-Star Analysis Plate). • (g) Add 60 μL of acetonitrile to each well and mix by pipetting up and down 10 times. • (h) Cover and gently shake for 3-5 minutes. Remove any bubbles with a pipet. • (i) Measure the absorbance of each well in the plate on the spectrophotometer (UV/vis) at the desired wavelength. For compounds in a plate with different absorbance peaks, set the spectrophotometer to read a spectrum (e.g., from 220 nm to 460 nm). • (j) Identify concentration using measured absorbance for each compound and the predetermined standard curve (see Step 1).

mice = conditions: sesame oil, N=4
[2] = tested on: IFNγ-induced NO production in RAW264.7 macrophages; assay: Suppression of IFNγ-induced NO production (Griess reagent); type: cell-based, mouse; conditions: RAW264.7, 20 ng/ml IFNγ 24 h, 2 h pre-treatment
Experimental: (§1) FIGS. 1-8 and 32-34. Inhibition of NO Production. RAW264.7 macrophages were pre-treated with DMSO or drugs at various concentrations (nM) for 2 hours, then treated with 20 ng/ml IFNγ for 24 hours. NO concentration in media was determined using a Griess reagent system; cell viability was determined using WST-1 reagent.
(§2) Nitric Oxide production and cell viability. RAW264.7 macrophages were pre-treated with DMSO or drugs for 2 hours, then treated with recombinant mouse IFNγ (Sigma) for 24 hours. NO concentration in media was determined using the Griess reagent system (Promega). Cell viability was determined using WST-1 reagent (Roche).

[3] = tested on: thioredoxin reductase-1 (TrxR1); assay: Nrf2 target gene induction, TrxR1 mRNA (qPCR); type: cell-based, human; conditions: MDA-MB-435 cells, 400 nM; percent of induction observed for 402
Experimental: (§3) FIG. 21. Induction of HO-1, TrxR1 and γ-GCS. MDA-MB-435 human melanoma cells were treated with vehicle (DMSO) or the indicated compounds and concentrations for 16 hours. HO-1, thioredoxin reductase-1 (TrxR1), and γ-glutamylcysteine synthetase (γ-GCS) mRNA levels were quantified using qPCR and were normalized relative to a DMSO-treated sample run in parallel. Values are averages of duplicate wells.
FIG. 22. Induction of TrxR1. MDA-MB-435 human melanoma cells were treated with vehicle (DMSO) or the indicated compounds and concentrations for 16 hours. Thioredoxin reductase-1 (TrxR1) mRNA levels were quantified using qPCR and were normalized relative to a DMSO-treated sample run in parallel. Values are averages of duplicate wells. Compounds 401, 402-19 and 402-53 are comparison compounds (see Example 1).
as §3, with “Nrf2 target gene induction.” for “FIG. 21. Induction of HO-1, TrxR1 and γ-GCS.”, “(TrxR1),” for “(TrxR1), and”, “(γ-GCS), and ferritin heavy chain” for “(γ-GCS)”, “wells. Primer sequences are as follows.” for “wells.”

RAW264.7 macrophages = assay: Cell viability, WST-1 reagent; type: cell-based, mouse; conditions: RAW264.7 (20 ng/ml IFNγ)
Experimental: as §1, §2

[4] = tested on: γ-glutamylcysteine synthetase (γ-GCS); assay: Nrf2 target gene induction, γ-GCS mRNA (qPCR); type: cell-based, human; conditions: MDA-MB-435 cells
Experimental: as §3
as §3, with “23.” for “21.”, “of” for “of HO-1, TrxR1 and”, “hours.” for “hours. HO-1, thioredoxin reductase-1 (TrxR1), and”
as §3, with “Nrf2 target gene induction.” for “FIG. 21. Induction of HO-1, TrxR1 and γ-GCS.”, “(TrxR1),” for “(TrxR1), and”, “(γ-GCS), and ferritin heavy chain” for “(γ-GCS)”, “wells. Primer sequences are as follows.” for “wells.”

HO-1 = assay: Nrf2 target gene induction, HO-1 mRNA (qPCR); type: cell-based, human; conditions: MDA-MB-435 cells
Experimental: as §3, with “FIGS. 17-20.” for “FIG. 21.”, “HO-1.” for “HO-1, TrxR1 and γ-GCS.”, “HO-1” for “HO-1, thioredoxin reductase-1 (TrxR1), and γ-glutamylcysteine synthetase (γ-GCS)”
as §3
as §3, with “Nrf2 target gene induction.” for “FIG. 21. Induction of HO-1, TrxR1 and γ-GCS.”, “(TrxR1),” for “(TrxR1), and”, “(γ-GCS), and ferritin heavy chain” for “(γ-GCS)”, “wells. Primer sequences are as follows.” for “wells.”

NQO1 = assay: Nrf2 target gene induction, NQO1; type: cell-based, human; conditions: MDA-MB-435 cells, 250 nM; fold induction above DMSO control
[5] = Triterpenoid levels in mouse brain after feeding in diet (LC/MS); type: in vivo; conditions: CD-1 mice, 200 or 400 mg/kg diet for 3.5 days
Experimental: CD-1 mice were fed either 200 or 400 mg/kg diet of either TP-319 or TP-500 for 3.5 days, and TP levels in the brains of the mice were analyzed by LC/MS. The structures of TP-319 and TP-500 are shown below.

[6] = 400 nM, percent of induction observed for 402
[7] = 250 nM, fold induction above DMSO control

Row | solubility at 90 min [1] [µM] | IC50 ([2]; Mus musculus) [nM] | SMILES | IC50 (RAW264.7 macrophages; Mus musculus) [nM] | NQO1 induction (NQO1) [fold] | HO-1 induction (HO-1; [7]) [fold] | other results
1 | 1.46 (≈ 0.738 µg/mL) |  | COC(=O)[C@]12CCC(C)(C)C[C@H]1[C@H]1C(=O)C=C3[C@@]4(C)C=C(C#N)C(=O)C(C)(C)[C@@H]4CC[C@@]3(C)[C@]1(C)CC2 [Compound 402, reference compound] |  |  |  | 
2 | 1.89 (≈ 0.907 µg/mL) |  | CC1(C)CC[C@]2(CO)CC[C@]3(C)[C@H](C(=O)C[C@@H]4[C@@]5(C)C=C(C#N)C(=O)C(C)(C)[C@@H]5CC[C@]43C)[C@@H]2C1 [Compound 63202] |  |  |  | 
3 |  | ~25 | CC1(C)CC[C@]2(C(N)=O)CC[C@]3(C)[C@H](C(=O)CC4[C@@]5(C)C=C(C#N)C(=O)C(C)(C)[C@@H]5CC[C@]43C)[C@@H]2C1 (stereo partly drawn) [Compound 63205, (4aS,6aR,6bR,8aR,12aR,14aR,14bS)-11-cyano-2,2,6a,6b,9,9,12a-heptamethyl-10,14-dioxo-1,2,3,4,4a,5,6,6a,6b,7,8,8a,9,10,12a,12b,13,14,14a,14b-icosahydropicene-4a-carboxamide] | > 200 | 1.7 | 1.7 | γ-GCS induction [4, 7]: 3.5 fold
4 |  | ~10 | CC1(C)CC[C@]2(C=O)CC[C@]3(C)[C@H](C(=O)CC4[C@@]5(C)C=C(C#N)C(=O)C(C)(C)[C@@H]5CC[C@]43C)[C@@H]2C1 (stereo partly drawn) [Compound 63206, (4aR,6aR,6bR,8aS,12aS,12bR,14bR)-8a-formyl-4,4,6a,6b,11,11,14b-heptamethyl-3,13-dioxo-3,4,4a,5,6,6a,6b,7,8,8a,9,10,11,12,12a,12b,13,14,14a,14b-icosahydropicene-2-carbonitrile] | > 200 | 1.8 | 2.5 | γ-GCS induction [4, 7]: 4.5 fold
5 |  |  | COC(=O)[C@]12CCC(C)(C)C[C@H]1[C@H]1[C@H](O)C[C@@H]3[C@@]4(C)C=C(C#N)C(=O)C(C)(C)[C@@H]4CC[C@@]3(C)[C@]1(C)CC2 [Compound 63207] |  | 1.6 | 1.2 | IC50 [2]: ~50 nM; IC50 (RAW264.7 macrophages): > 200 nM; γ-GCS induction [4, 7]: 3.1 fold
6 | 112 (≈ 53.7 µg/mL) |  | CC1(C)CC[C@]2(CN)CC[C@]3(C)[C@H](C(=O)C[C@@H]4[C@@]5(C)C=C(C#N)C(=O)C(C)(C)[C@@H]5CC[C@]43C)[C@@H]2C1 [Compound 63214] |  |  |  | 
7 | 13.6 (≈ 6.92 µg/mL) | ~150 | COC(=O)[C@]12CCC(C)(C)C[C@H]1[C@H]1[C@@H](O)C[C@@H]3[C@@]4(C)C=C(C#N)C(=O)C(C)(C)[C@@H]4CC[C@@]3(C)[C@]1(C)CC2 [Compound 63219] | > 200 |  |  | 
8 | 8.78 (≈ 4.48 µg/mL) |  | CC1(C)CC[C@]2([C@@H](O)CO)CC[C@]3(C)[C@H](C(=O)C[C@@H]4[C@@]5(C)C=C(C#N)C(=O)C(C)(C)[C@@H]5CC[C@]43C)[C@@H]2C1 [Compound 63221] |  |  |  | 
9 | 0.71 (≈ 0.408 µg/mL) |  | CC1(C)CC[C@]2(CNC(=O)C(F)(F)F)CC[C@]3(C)[C@H](C(=O)C[C@@H]4[C@@]5(C)C=C(C#N)C(=O)C(C)(C)[C@@H]5CC[C@]43C)[C@@H]2C1 [Compound 63226] |  |  |  | 
10 | 1.23 (≈ 0.607 µg/mL) |  | CC1(C)CC[C@]2(CCO)CC[C@]3(C)[C@H](C(=O)C[C@@H]4[C@@]5(C)C=C(C#N)C(=O)C(C)(C)[C@@H]5CC[C@]43C)[C@@H]2C1 [Compound 63231] |  |  |  | 
11 | 0.75 (≈ 0.43 µg/mL) |  | Cc1cc(CNC[C@]23CCC(C)(C)C[C@H]2[C@H]2C(=O)C[C@@H]4[C@@]5(C)C=C(C#N)C(=O)C(C)(C)[C@@H]5CC[C@@]4(C)[C@]2(C)CC3)no1 [Compound 63232] |  |  |  | 
12 | 5.16 (≈ 2.96 µg/mL) | ~80 | CC1(C)CC[C@]23CC[C@@]4(C)[C@]5(C)CC[C@H]6C(C)(C)C(=O)C(C#N)=C[C@]6(C)[C@H]5CC(=O)[C@@]4([C@@H]2C1)N(CC(F)(F)F)C3=O [Compound 63237] | > 200 | 2.3 | 3 | γ-GCS induction [4, 7]: 6.4 fold
13 |  | ~5 | CC1(C)CC[C@]2(C#N)CC[C@]3(C)[C@H](C(=O)CC4[C@@]5(C)C=C(C#N)C(=O)C(C)(C)[C@@H]5CC[C@]43C)[C@@H]2C1 (stereo partly drawn) [Compound 63252, (4aR,6aR,6bR,8aS,12aS,12bR,14bR)-4,4,6a,6b,11,11,14b-heptamethyl-3,13-dioxo-3,4,4a,5,6,6a,6b,7,8,8a,9,10,11,12,12a,12b,13,14,14a,14b-icosahydropicene-2,8a-dicarbonitrile] | > 200 | 3 | 5 | 
14 |  |  | CC1(C)CC[C@]2(C(=O)NCC(F)(F)F)CC[C@]3(C)[C@H](C(=O)C=C4[C@@]5(C)C=C(C#N)C(=O)C(C)(C)[C@@H]5CC[C@]43C)[C@@H]2C1 [TP-500] |  |  |  | level detected in mouse brain compared with CDDO-EA (TP-319) [5]: Higher Levels

Row | SMILES | solubility at 90 min [1] [µM] | IC50 ([2]; Mus musculus) [nM] | IC50 (RAW264.7 macrophages; Mus musculus) [nM] | NQO1 induction (NQO1) [fold] | HO-1 induction (HO-1; [7]) [fold] | other results
15 | CC1(C)CC[C@]2(C(=O)O)CC[C@]3(C)[C@H](C(=O)CC4[C@@]5(C)C=C(C#N)C(=O)C(C)(C)[C@@H]5CC[C@]43C)[C@@H]2C1 (stereo partly drawn) [Compound 63196, (4aS,6aR,6bR,8aR,12aR,14aR,14bS)-11-cyano-2,2,6a,6b,9,9,12a-heptamethyl-10,14-dioxo-1,2,3,4,4a,5,6,6a,6b,7,8,8a,9,10,12a,12b,13,14,14a,14b-icosahydropicene-4a-carboxylic acid] |  | ~75 | > 200 |  |  | Number of Deaths (mice; oral gavage QDx14, 10 mg/kg): 0; Number of Deaths (mice; oral gavage QDx14, 50 mg/kg): 1*; Number of Deaths (mice; oral gavage QDx14, 100 mg/kg): 0; Number of Deaths (mice; oral gavage QDx14, 250 mg/kg): 1; TrxR1 induction [3]: 48%; γ-GCS induction [4, 6]: 26%; HO-1 induction (HO-1; [6]): 1%
